This is an account of results in patent publication US20080242669A1, “METHODS RELATING TO THE TREATMENT OF FIBROTIC DISORDERS” (UNIVERSITY OF WASHINGTON, priority 2005, published 2008).

Where only a bound is given, the exact number is not on record here.

The test system of assay [1] is bleomycin induced fibrosis. The assay is described as follows: Bleomycin induced murine pulmonary fibrosis model (lung sections stained for collagen, body weight, survival). Type of assay: in vivo, mouse. How it is done:
Murine models of bleomycin induced fibrosis have been developed in order to study fibrotic disease progression.
There is an absence of airway epithelium in lower left compared to upper left (see arrow heads) and extensive collagen deposition (lower left). On the sixth day, either saline (upper right) or ICG-001 (5 mgs/Kg/day) was administered for 10 days after which the mice were sacrificed and sectioned. Of interest is the upper right (saline treatment) showing lack of normal airway epithelialization, extensive collagen deposition and intra-airway hypercellularity (fibroblasts and inflammatory influx).
FIGS. 16 and 17 show RT-PCR data for S100A4 (FIG. 16) and collagen1A2 (FIG. 17), which are increased in the bleomycin treated mice (treated with saline control).
The procedures were performed using the animal model as described in Example 2 (FIG. 15), and the sectioned lungs were stained for collagen.

A further assay concerns Aquaporin 5. The assay is described as follows: Aquaporin 5 immunostaining of lung tissue in bleomycin mouse model. Type of assay: in vivo. The note with it: bleomycin and ICG-001 vs bleomycin alone. Here is the method: The aquaporins are water channels expressed in a variety of cell types. Aquaporin 5 is involved in the transportation of water across the apical surface of the alveolar epithelium and the epithelia of the submucosal glands in the upper airway and nasopharynx. (Krane, C. M., P.N.A.S. 98:14192-4, 2001; Yang, F. J. Biol. Chem. 278:32173-80, 2003). Because aquaporin 5 is a marker of Type 1 (differentiated) lung epithelium, its expression was assayed in lung tissue treated with bleomycin (FIG. 22A), bleomycin and ICG-001 (FIG. 22B), and saline (FIG. 22C), using the animal model as described in Example 2 (FIG. 15), and immunostaining with an antibody specific for Aquaporin 5.

The test system of a further assay is E-Cadherin. The assay is described as follows: Western blot for E-Cadherin on whole cell lysates of IPF patient fibroblasts. The class given is cell-based, human. The note with it: RPMI1640+10% FBS, 2 days. Here is the method: (§1) Western blots for S100A4 (also know as FSP-1 or fibroblast specific protein-1) and E-Cadherin were performed on whole cell lysates (FIG. 20).
A general note: A western blot detects proteins with antibodies after separation by electrophoresis.

A further assay deals with S100A4 (FSP-1). The assay is described as follows: Western blot for S100A4 on whole cell lysates of IPF patient fibroblasts. As to conditions: IPF patient fibroblasts / ATCC IPF cells, RPMI1640+10% FBS, 2 days. The class given is cell-based, human. Here is the method:
as §1

Assay [2] deals with TCF/β-Catenin driven β-Galactosidase expression. The assay is described as follows: TCF/β-catenin driven β-galactosidase reporter in lungs of bleomycin-treated Bat-Gal transgenic mice (X-Gal staining). The note with it: intratracheal bleomycin, 5 mg/Kg/day via minipump (subcutaneously). The class given is in vivo, mouse. Here is the method: Using this murine model of pulmonary fibrosis in transgenic Bat-Gal mice, ICG-001 (5 mg/Kg/day, administered via minipump) blocked >95% of bleomycin-induced TCF/O-catenin transcription.
These mice have a Beta-Galactosidase transgene driven by a TCF/Catenin driven promoter (i.e. a read out for activated Wnt/catenin signaling). The mice were given intratracheal saline or bleomycin and either treated with ICG-001 (5 mgs/Kg/day subcutaneously) or saline as vehicle control. The mice were sacrificed and the lungs sectioned and stained with X-Gal (blue color) A) intratracheal bleo+saline. B) intracheal bleo+ICG-001 C) saline+saline.
The dose was selected because ICG-001 reduces TCF/β-Catenin driven β-Galactosidase expression >95% at 5 mgs/Kg/day.

The mark [3] stands for this setting: C57/B16 mice, bleomycin 5 days, then 5 mgs/Kg/day for 10 days.
The mark [4] stands for this setting: bleomycin and ICG-001 vs bleomycin.
The mark [5] stands for this setting: bleomycin model, 5 mg/Kg/day via minipump.

For the molecule `O=C1[C@H](Cc2ccc(O)cc2)N2C(=O)CCN(C(=O)NCc3ccccc3)[C@H]2CN1Cc1cccc2ccccc12` [ICG-001], in assay [1] (setting [3]), the “airway appearance in trichrome stained lung sections” value is on record as “essential normal”, the body weight entry is given as “regained normal body weight” and the “collagen levels in trichrome stained lung sections” value is on record as “normal collagen levels”. Further, in assay [1] (C57/B16 mice, bleomycin 5 days, then 5 mgs/Kg/day for 10 days, untreated controls did not survive), the survival result is “survived”. In assay [1] (setting [4]), the “alveolar fibrosis (lungs stained for collagen)” value is “prevented” and the “interstitial fibrosis (lungs stained for collagen)” value is given as “prevented”. Also, in assay [1] (setting [5]), the “disease progression, as judged by mortality, histopathology and endogenous gene expression” value is “not only halted but reversed”; the mortality result is “reduced”. Further, the “fibrosis over the 25 days of treatment” value in assay [1] (bleomycin model, 25 days of treatment) is listed as “reversed fibrosis”. In the assay with Aquaporin 5, the “aquaporin 5 expression in lung tissue (immunostaining)” value is “greatly increased”. Besides, the “E-cadherin expression (Western blot; also mRNA level)” value in the assay on E-Cadherin was “increased”. Also, in the assay with S100A4 (FSP-1), the “S100A4 expression (Western blot)” value is given as “decreased”. In assay [2], the “block of bleomycin-induced TCF/β-catenin transcription (β-Galactosidase expression)” value was above 95%.
